Assay results taken from patent US20170066717A1, “NEW PHENYLAZETIDINECARBOXYLATE OR -CARBOXAMIDE COMPOUNDS” (INVENTIVA, priority 2014, published 2017).

Assays:
NURR-1/RXRγ = molecular target: T1, NURR-1/RXRγ (Homo sapiens, UniProt P48443); assay: Transactivation test, NURR-1-Gal4/RXRγ, luciferase reporter in Cos-7 cells; assay type: cell-based; conditions: for Emax: COS-7, induction level relative to reference XCT0135908 at 2×10^−5 M (=100%), read-out: hNurr1_RXRgFL Emax (%); for EC50: Cos-7 cells, NURR-1-Gal4/RXRγ, luciferase reporter, read-out: hNurr1_RXRgFL EC50
T1 construct: expressed in transfected cells; host or cells: Cos-7 cells

NURR-1/RXRα = molecular target: T2, NURR-1/RXRα (Homo sapiens, UniProt P19793); assay: Transactivation test, NURR-1-Gal4/RXRα, luciferase reporter in Cos-7 cells; assay type: cell-based; conditions: for Emax: COS-7, induction level relative to reference XCT0135908 at 2×10^−5 M (=100%), read-out: hNurr1_RXRaFL Emax (%); for EC50: Cos-7 cells, NURR-1-Gal4/RXRα, luciferase reporter, read-out: hNurr1_RXRaFL EC50
T2 construct: expressed in transfected cells; host or cells: Cos-7 cells
T2 sequence (P19793 whole entry, the tested form may be a part): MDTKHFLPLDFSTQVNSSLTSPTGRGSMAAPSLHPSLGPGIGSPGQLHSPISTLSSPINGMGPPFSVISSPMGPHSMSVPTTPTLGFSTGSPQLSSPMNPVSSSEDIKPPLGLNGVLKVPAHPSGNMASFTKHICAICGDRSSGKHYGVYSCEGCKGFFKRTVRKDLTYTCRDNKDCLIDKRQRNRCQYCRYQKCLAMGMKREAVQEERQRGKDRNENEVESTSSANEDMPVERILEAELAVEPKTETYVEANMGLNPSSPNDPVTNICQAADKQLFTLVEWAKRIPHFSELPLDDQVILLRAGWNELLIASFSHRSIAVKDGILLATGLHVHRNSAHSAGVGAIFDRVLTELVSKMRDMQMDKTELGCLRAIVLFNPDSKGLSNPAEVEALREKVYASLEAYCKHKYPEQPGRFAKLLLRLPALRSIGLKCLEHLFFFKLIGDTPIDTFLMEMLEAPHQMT
T2 sequence (P43354 whole entry partner, the tested form may be a part): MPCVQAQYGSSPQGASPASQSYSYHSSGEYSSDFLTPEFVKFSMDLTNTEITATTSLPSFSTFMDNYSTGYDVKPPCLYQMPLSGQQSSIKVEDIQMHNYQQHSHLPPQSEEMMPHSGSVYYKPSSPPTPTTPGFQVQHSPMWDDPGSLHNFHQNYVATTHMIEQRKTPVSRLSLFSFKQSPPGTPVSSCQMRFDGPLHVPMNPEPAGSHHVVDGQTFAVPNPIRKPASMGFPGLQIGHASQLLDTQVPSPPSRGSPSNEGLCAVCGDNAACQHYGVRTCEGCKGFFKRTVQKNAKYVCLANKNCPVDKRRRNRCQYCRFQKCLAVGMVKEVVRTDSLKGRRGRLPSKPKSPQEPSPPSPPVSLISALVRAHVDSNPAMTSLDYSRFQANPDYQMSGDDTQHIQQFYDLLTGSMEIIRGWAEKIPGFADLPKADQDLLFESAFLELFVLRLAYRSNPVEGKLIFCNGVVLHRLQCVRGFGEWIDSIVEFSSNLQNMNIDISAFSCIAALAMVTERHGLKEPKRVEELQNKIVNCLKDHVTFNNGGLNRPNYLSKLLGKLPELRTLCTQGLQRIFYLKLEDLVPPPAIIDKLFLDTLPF
T2 sequence (P04386 1-147 partner limits assumed): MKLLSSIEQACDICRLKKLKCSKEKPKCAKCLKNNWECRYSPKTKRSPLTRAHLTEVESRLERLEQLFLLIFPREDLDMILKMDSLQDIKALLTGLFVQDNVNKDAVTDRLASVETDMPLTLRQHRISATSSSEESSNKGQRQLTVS

T1 sequence (P48443 whole entry, the tested form may be a part): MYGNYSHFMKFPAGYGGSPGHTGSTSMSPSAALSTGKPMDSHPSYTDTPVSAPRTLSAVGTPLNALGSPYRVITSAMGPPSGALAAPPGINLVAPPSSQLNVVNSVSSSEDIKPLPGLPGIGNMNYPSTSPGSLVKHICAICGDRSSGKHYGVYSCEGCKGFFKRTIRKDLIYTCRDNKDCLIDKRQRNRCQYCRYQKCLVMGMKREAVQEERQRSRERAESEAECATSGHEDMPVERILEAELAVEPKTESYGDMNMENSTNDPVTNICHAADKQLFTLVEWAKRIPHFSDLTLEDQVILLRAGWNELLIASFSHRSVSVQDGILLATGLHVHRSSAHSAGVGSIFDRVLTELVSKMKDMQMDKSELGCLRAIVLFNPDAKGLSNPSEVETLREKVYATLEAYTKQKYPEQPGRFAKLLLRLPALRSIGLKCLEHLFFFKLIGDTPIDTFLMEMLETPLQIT
T1 sequence (P43354 whole entry partner, the tested form may be a part): as the sequence (P43354 whole entry partner, the tested form may be a part) above
T1 sequence (P04386 1-147 partner limits assumed): as the sequence (P04386 1-147 partner limits assumed) above

SMILES | Emax (NURR-1/RXRγ) | EC50 (NURR-1/RXRγ) | Emax (NURR-1/RXRα) | EC50 (NURR-1/RXRα)
Cc1cn(-c2cccc(N3CC(C(=O)NCCCCO)C3)c2)c2ccc(C(F)(F)F)cc12 [Example 156, N-(4-hydroxybutyl)-1-[3-[3-methyl-5-(trifluorometyl)indol-1-yl]phenyl]azetidine-3-carboxamide] | 117% | 4 nM | 105% | 3 nM
Cc1cn(-c2cccc(N3CC(C(=O)NCC(O)CO)C3)c2)c2ccc(C(F)(F)F)cc12 (stereo not drawn) [Example 157, N-(2,3-dihydroxypropyl)-1-[3-[3-methyl-5-(trifluoromethyl)indol-1-yl]phenyl]azetidine-3-carboxamide] | 114% | 6 nM | 120% | 3 nM
Cc1cn(-c2cccc(N3CC(C(=O)NC(CO)CO)C3)c2)c2ccc(C(F)(F)F)cc12 [Example 161, N-[2-hydroxy-1-(hydroxymethyl)ethyl]-1-[3-[3-methyl-5-(trifluoromethyl)indol-1yl]phenyl]azetidine-3-carboxamide] | 103% | 23 nM | 113% | 9 nM
Cc1cn(-c2cccc(N3CC(C(=O)NC4CCN(C)CC4)C3)c2)c2ccc(C(F)(F)F)cc12 [Example 162, N-(1-methyl-4-piperidyl)-1-[3-[3-methyl-5-(trifluromethyl)indol-1-yl]phenyl]azetidine-3-carboxamide] | 93% | 1380 nM | 100% | 823 nM
Cc1cn(-c2cccc(N3CC(C(=O)NC4COC4)C3)c2)c2ccc(C(F)(F)F)cc12 [Example 163, 1-[3-[3-methyl-5-(trifluoromethyl)indol-1-yl]phenyl]-N-(oxetan-3-yl)azetidine-3-carboxamide] | 125% | 9 nM | 123% | 7 nM
Cc1cn(-c2cccc(N3CC(C(=O)NCCCN4CCNCC4)C3)c2)c2ccc(C(F)(F)F)cc12 [Example 164, 1-[3-[3-methyl-5-(trifluoromethyl)indol-1-yl]phenyl]-N-(3-piperazia-1-ylpropyl)azetidine-3-carboxamide] | 88% | 1650 nM | 85% | 723 nM
Cc1cn(-c2cccc(N3CC(C(=O)N(C)C)C3)c2)c2ccc(C(F)(F)F)cc12 [Example 165, N,N-dimethyl-1-[3-[3-methyl-5-(tirfluormethyl)indol-1-yl]phenyl]azetidine-3-carboxamide] | 108% | 20 nM | 103% | 15 nM
Cc1cn(-c2cccc(N3CC(C(=O)NC4CCCC4)C3)c2)c2ccc(C(F)(F)F)cc12 [Example 166, N-cyclopetnyl-1-[3-[3-methyl-5-(trifluoromethyl)indol-1-yl]phenyl]azetidine-3-carboxamide] | 113% | 41 nM | 104% | 25 nM
Cc1cn(-c2cccc(N3CC(C(=O)NCC(C)C)C3)c2)c2ccc(C(F)(F)F)cc12 [Example 167] | 131% | 41 nM | 109% | 25 nM
Cc1cn(-c2cccc(N3CC(C(=O)NCCO)C3)c2)c2ccc(C(F)(F)F)cc12 [Example 168] | 106% | < 1 nM | 102% | < 1 nM
CCCCNC(=O)C1CN(c2cccc(-n3cc(C)c4cc(C(F)(F)F)ccc43)c2)C1 [Example 169, N-butyl-1-[3-[3-methyl-5-(trifluoromethyl)indol-1-yl]phenyl]azetidine-3-carboxamide] | 149% | 26 nM | 109% | 13 nM
Cc1cn(-c2cccc(N3CC(C(=O)NCCN4CCOCC4)C3)c2)c2ccc(C(F)(F)F)cc12 [Example 170, 1-[3-[3-methyl-5-(trifluoromethyl)indol-1-yl]phenyl]-N-(2-morpholinoethyl)azetidine-3-carboxamide] | 90% | 32 nM | 100% | 27 nM
Cc1cn(-c2cccc(N3CC(C(=O)NC(C)(C)C)C3)c2)c2ccc(C(F)(F)F)cc12 [Example 171, N-tert-butyl-1-[3-[3-methyl-5-(tirfluoromethyl)indol-1-yl]phenyl]azetidine-3-carboxamide] | 114% | 335 nM | 111% | 73 nM
COCCCNC(=O)C1CN(c2cccc(-n3cc(C)c4cc(C(F)(F)F)ccc43)c2)C1 [Example 172, N-(3-methoxvpypropyl)-1-[3-[3-methyl-5-(trifluoromethyl)indol-1-yl]phenyl]azetidine-3-carboxamide] | 114% | 5 nM | 104% | < 1 nM
Cc1cn(-c2cccc(N3CC(C(=O)NCCCN(C)C)C3)c2)c2ccc(C(F)(F)F)cc12 [Example 174, N-[3-(dimethylamino)propyl]-1-[3-[3-methyl-5-(trifluoromethyl)indol-1-yl]phenyl]-azetidine-3-carboxamide] | 95% | 620 nM | 91% | 341 nM

Second part, the compound after the results:

Emax (NURR-1/RXRγ) | EC50 (NURR-1/RXRγ) | Emax (NURR-1/RXRα) | EC50 (NURR-1/RXRα) | SMILES
84% | 1260 nM | 77% | 647 nM | Cc1cn(-c2cccc(N3CC(C(=O)NCCCCN(C)C)C3)c2)c2ccc(C(F)(F)F)cc12 [Example 175, N-[4-(dimethylamino)butyl]-1-[3-[3-methyl-5-(trifluoromethyl)indol-1yl]phenyl]-azatidine-3-carboxamide]
130% | 28 nM | 113% | 12 nM | Cc1cn(-c2cccc(N3CC(C(=O)NCCN4CCNC4=O)C3)c2)c2ccc(C(F)(F)F)cc12 [Example 176, 1-[3-[3-methyl-5-(trifluoromethyl)indol-1-yl]-phenyl]N-[2-(2-oximidazolidin-1-yl)ethyl]azetidine-3-carboxamide]
109% | 10 nM | 104% | 7 nM | Cc1cn(-c2cccc(N3CC(C(=O)NCC4CC4)C3)c2)c2ccc(C(F)(F)F)cc12 [Example 177, N-(cyclopropylmethyl)-1-[3-[3-methyl-5-(trifluoromethyl)indol-1-yl]phenyl]azetidine-3-carboxamide]
133% | 146 nM | 115% | 14 nM | Cc1cn(-c2cccc(N3CC(C(=O)NCC(F)(F)F)C3)c2)c2ccc(C(F)(F)F)cc12 [Example 178, 1-[3-[3-methyl-5-(trifluoromethyl)indol-1-yl]phenyl]-N-(2,2,2-trifluoromethyl)azetidine-3-carboxamide]
144% | 12 nM | 119% | 8 nM | Cc1cn(-c2cccc(N3CC(C(=O)NC4CCC4)C3)c2)c2ccc(C(F)(F)F)cc12 [Example 179]
110% | 86 nM | 103% | 54 nM | Cc1cn(-c2cccc(N3CC(C(=O)NC4CCOCC4)C3)c2)c2ccc(C(F)(F)F)cc12 [Example 180, 1-[3-[3-methyl-5-(trifluorometnyl)indol-1-yl]phenyl]-N-tetrahydropyran-4-yl-azetidine-3-carboxamide]
96% | 293 nM | 103% | 168 nM | Cc1cn(-c2cccc(N3CC(C(=O)NCCN4CCN(C)CC4)C3)c2)c2ccc(C(F)(F)F)cc12 [Example 181, N-[2-(4-methylipiperazin-1-yl)ethyl]-1-[3-[3-methyl-5-(trifluoromethyl)indol-1-yl]phenyl]azetidine-3-carboxamide]
111% | 14 nM | 98% | 7 nM | CC(=O)NCCCNC(=O)C1CN(c2cccc(-n3cc(C)c4cc(C(F)(F)F)ccc43)c2)C1 [Example 182, N-(3-acetamidopropyl)-1-[3-[3-methyl-5-(trifluoromethyl)indol-1-yl]phenyl]azetidine-3-carboxylate]
127% | 316 nM | 108% | 92 nM | Cc1cn(-c2cccc(N3CC(C(=O)NC4CCC(F)(F)CC4)C3)c2)c2ccc(C(F)(F)F)cc12 [Example 183, N-(4,4-difluorocyclophexyl)-1-[3-[3-5-(trifluoromethyl)indol-1-yl]phenyl]-azetidine-3-carboxamide]
 | 116 nM | 105% | 7 nM | CCCc1ccc(C(C)C)cc1-c1cccc(N2CC(C(=O)O)C2)c1 [Example 195, piperazin-1-ium-1-[3-(5-isopropyl-2-propylphenyl)phenyl]azetidine-3-carboxylate]
63% | 4 nM | 80% | 0.69 nM | CN1CC2(CCC2)Oc2cc(C(F)(F)F)cc(-c3cccc(N4CC(C(=O)O)C4)c3)c21 [Example 203, sodium 1-[3-[4-methul-7-(trifluoromethyl)spiro[3H-1,4-benzoxazine-2,1′-cyclobutane]-5-yl]phenyl]azetidine-3-carboxylate]
103% | 16 nM | 112% | 15 nM | CCc1cc2c(c(-c3cccc(N4CC(C(=O)O)C4)c3)c1)NCC(C)(C)O2 [Example 207, tert-butylammonium 1-[3-(7-ethyl-2,2-dimethyl-3,4-dihydro-1,4-benzoxazin-5-yl)phenyl]azetidine-3-carboxylate]
94% | 27 nM | 115% | 19 nM | CC1(C)CN(c2cccc(N3CC(C(=O)O)C3)c2)c2ccc(Br)cc2O1 [Example 222, sodium 1-[3-(7-bromo-2,2-dimethyl-3H-1,4-benzoxazin-4-yl)phenyl]azetidine-3-carbxoylate]
